# Results reported in patent US20260076935A1, “PREVENTION AND TREATMENT OF CONDITIONS USING ETHYL PYRUVATE” (The Trustees of Columbia University in the City of New York, priority 2023, published 2026).
# Key:
# [1] = system: early onset Lmx1b developmental glaucoma model; experiment: Glaucomatous optic nerve damage (neurodegeneration) in Lmx1b glaucoma mice; type: in vivo; settings: FIG. 8
# [2] = prior clinical studies; cited from earlier work
# [3] = system: early-onset Lmx1b developmental glaucoma model; experiment: Intraocular pressure (IOP) in mice with early-onset Lmx1b developmental glaucoma model; type: in vivo
# Text: Ethyl pyruvate's ability to treat or prevent IOP elevation ocular developmental abnormalities was surprising at least because such effects have not been observed with sodium pyruvate treatments.
# [4] = system: early onset Lmx1b developmental glaucoma model; experiment: Ocular developmental abnormalities (iridocorneal adhesions, anterior chamber depth) in Lmx1b glaucoma mice; type: in vivo
# Text: As shown in FIGS. 4-6, in addition to preventing or treating high IOP, treatment of mice harboring an early onset Lmx1b developmental glaucoma model with ethyl pyruvate, alone or in combination with a metabolite boosting agent, unexpectedly rescued ocular developmental abnormalities. […] Ethyl pyruvate's ability to treat or prevent IOP elevation ocular developmental abnormalities was surprising at least because such effects have not been observed with sodium pyruvate treatments.
# [5] = Long-term dosing of mice, adverse effects; type: in vivo; settings: mice dosed for at least up to nine months
# Experimental: Ethyl pyruvate was sourced from Sigma-Aldrich. […] See, e.g., Clinical Trial Identifier NCT00107666 (human cardiac trial, dosing ethyl pyruvate at 7.5 g (90 mg/kg) intravenously, every six hours for two days); Xiujing Sun et al., Ethyl Pyruvate Supplemented in Drinking Water Ameliorates Experimental Nonalcoholic Steatohepatitis, 137 Biomedical Pharmacotherapy 111392 (2021); Leilei Mao et al., Ethyl Pyruvate Improves White Matter Remodeling in Rats After Traumatic Brain Injury, 27 CNS Neuroscience & Therapeutics 113 (2021); C. C. Jacobs et al, Ethyl Pyruvate Diminishes the Inflammatory Response to Lipopolysaccharide Infusion in Horses, 45 Equine Veterinary J. 333 (2013). […] Furthermore, ethyl pyruvate is an FDA-approved food additive and flavoring agent.
# [6] = multiple mammalian species, including humans, mice, rats, and horses; cited from earlier work
# [7] = system: age-onset mouse glaucoma models; experiment: IOP in age-onset mouse glaucoma models; type: in vivo
# Experimental: In some embodiments, one or more of these factors may lead to glaucoma. In some embodiments, the mouse model is a Lmx1b mouse model. This is unexpected at least because sodium pyruvate had no effect on IOP in age-onset mouse glaucoma models, or in the early-onset Lmx1b developmental glaucoma model. For example, treatment of Lmx1b mice with about 500 mg/kg/day of sodium pyruvate had no effect on IOP at 2, 3, and 4-months post-treatment. This is also unexpected at least because calcium pyruvate had no effect on IOP in humans in prior clinical studies.
# [8] = about 500 mg/kg/day, 2, 3, and 4-months post-treatment, Lmx1b mice
compound,measurement,setting,value
NC(=O)c1cccnc1 [nicotinamide],glaucomatous optic nerve damage,[1]; nicotinamide 550 mg/kg/day,protective from glaucomatous optic nerve damage
calcium pyruvate,IOP in humans,[2],no effect
CCOC(=O)C(C)=O [ethyl pyruvate],IOP,"[3]; ethyl pyruvate 500 mg/kg/day, out to two months of age, FIG. 1",lessening of IOP
same,IOP,"[3]; ethyl pyruvate 2000 mg/kg/day, FIG. 2",lessening of IOP
same,anterior chamber deepening,[4]; FIGS. 5-6,significant effect in preventing or reducing anterior chamber deepening
same,incidence and severity of iridocorneal adhesions,"[4]; ethyl pyruvate 2000 mg/kg/day, FIG. 4",less incidence and severity
same,glaucomatous optic nerve damage (neurodegeneration),"[1]; ethyl pyruvate 2000 mg/kg/day, mice aged to six months",lessening of glaucomatous optic nerve damage
same,adverse effects,[5],without adverse effects
same,safety and tolerability,[6],safe and well-tolerated
CC(=O)C(=O)[O-].[Na+] [sodium pyruvate],IOP,[3]; [8],no effect
same,IOP elevation,"[3]; sodium pyruvate 500 mg/kg/day, after two months, FIG. 7",no effect
same,IOP compared to untreated,"[3]; sodium pyruvate 500 mg/kg/day, at three and four months",no changes were observed
same,severity of anterior eye developmental abnormalities,[4]; [8],no effect
same,severity of anterior eye developmental abnormalities,[4]; sodium pyruvate 500 mg/kg/day,no change
same,IOP,[7],no effect
